# Results from paper PMC9732521, “Molecular mechanism of GylR-mediated regulation of glycerol metabolism in Streptomyces clavuligerus NRRL 3585” (Frontiers in Microbiology, 2022).
# Tests used:
# [1] = target: T1, GylR (Streptomyces clavuligerus, UniProt E2PWC0); assay: EMSA, dissociation of GylR from DNA probe BS2; assay type: binding; conditions: effector (inducer), 50 mM HEPES pH 7.5, 5 mM MgCl2, 25 °C
# T1 construct: gene SCLAV_0876; coding region of gylR in pET-30a (NdeI/XhoI), C-terminal His6 tag, E. coli Rosetta (DE3), Ni-NTA; dimer by SEC
# [2] = target: GylR (IclR family transcriptional regulator) of Streptomyces clavuligerus NRRL 3585, C-terminal His6-tagged (Streptomyces clavuligerus NRRL 3585); assay: SEC; TSKgel G3000 SWxl column (7.8 x 300 mm) on HPLC, 0.1 M Na2SO4 (pH 6.7), 0.5 ml/min; bovine serum albumin, ovalbumin and AlpJ as molecular weight standards
# T1 sequence (E2PWC0 entry or part of it): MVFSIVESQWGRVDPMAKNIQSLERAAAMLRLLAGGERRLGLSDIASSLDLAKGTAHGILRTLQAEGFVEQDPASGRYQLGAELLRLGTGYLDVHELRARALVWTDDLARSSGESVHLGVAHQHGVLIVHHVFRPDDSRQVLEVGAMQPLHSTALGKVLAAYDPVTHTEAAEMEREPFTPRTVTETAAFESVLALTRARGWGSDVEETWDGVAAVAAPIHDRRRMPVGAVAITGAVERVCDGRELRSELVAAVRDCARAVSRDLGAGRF
Compound,"EMSA, dissociation of GylR from DNA probe BS2 [1]",stoichiometry N [2]
"O=P(O)(O)OC[C@H](O)CO [G3P, glycerol-3-phosphate]",both G3P and DHAP were capable of inducing the dissociation of GylR from BS2,–
"GylR (IclR family transcriptional regulator) of Streptomyces clavuligerus NRRL 3585, C-terminal His6-tagged (natural protein)",–,2
"O=C(CO)COP(=O)(O)O [DHAP, dihydroxyacetone phosphate]",both G3P and DHAP were capable of inducing the dissociation of GylR from BS2,–
